The results in this text go back to patent US8871933B2, “Purified pyrroloquinolinyl-pyrrolidine-2,5-dione compositions and methods for preparing and using same” (ArQule, Inc., priority 2009, dated 2014).

Each structure is given as a SMILES string. Values after ≈ are worked out from the molar mass of the structure shown.

For one series, the target named is c-Met (Homo sapiens, UniProt P08581). Nature of the series: c-Met phosphorylation in MDA-MB-231 cells, basal and HGF-induced (Western blot). Details: Whole cell extracts were prepared in lysis buffer; endogenous in cells; host or cells: MDA-MB-231. Type of series: cell-based. The note with it: 20 μM. As to the method: MDA-MB-231 cells were serum-deprived overnight (16 hours) in the absence or in the presence of the indicated concentrations of the separate enantiomers (+)-trans-3-(5,6-dihydro-4H-pyrrolo[3,2,1-ij]quinolin-1-yl)-4-(1H-indol-3-yl)pyrrolidine-2,5-dione and (−)-trans-3-(5,6-dihydro-4H-pyrrolo[3,2,1-ij]quinolin-1-yl)-4-(1H-indol-3-yl)pyrrolidine-2,5-dione. Cells were treated with 100 ng/ml recombinant human Hepatocyte Growth Factor/Scatter Factor (HGF/SF) (R&D Systems #294-HG) for 10 minutes. Whole cell extracts were prepared in lysis buffer (20 mM Tris-HCl pH 7.5, 150 mM NaCl, 1 mM Na2EDTA, 1 mM EGTA, 1% Triton X-100, 2.5 mM sodium pyrophosphate, 1 mM beta-glycerophosphate, 1 mM Na3VO4, 1 μg/ml leupeptin, 1 mM phenylmethylsulfonyl fluoride) and sonicated. Protein concentration was measured by Bradford assay using the BioRad reagent (BioRad, Hercules, Calif.), according to the manufacturer's directions. Samples ([…] of protein) were resolved by 8% SDS-PAGE under reducing conditions and transferred onto a PVDF membrane (BioRad). […] Proteins were detected by incubation overnight at 4° C. in TBS-T with 5% milk and either a polyclonal antibody against phosphorylated c-Met (#3121) or a monoclonal antibody against β-actin (A-5441) (Sigma), which was used as a control for total protein loading. […]
A general note: Immunoblotting shows a protein as a band on a membrane.

In the next series the test system is MDA-MB-231 cells. Nature of the series: Colony formation / surviving fraction assay. It is filed as cell-based. To be noted: Homo sapiens, two days incubation, colonies counted two weeks later, read-out: IC50 (surviving fraction equaled 50). As to the method:
MDA-MB-231 cells (ATCC #HTB-26), grown in DMEM plus 15% heat inactivated fetal bovine serum plus 10 mM HEPES pH 7.5, were plated in 60 mm^2 plates (2×10^5 cells per plate). After two days candidate compounds in DMSO at various concentrations were diluted in media and added to individual plates such that the final DMSO concentration in the cell culture media was 0.1%. After two days incubation the culture was trypsinized, cells were washed with media, counted using a hemocytometer and 500 cells, including cell bodies, were plated in 100 mm^2 plates in media. Two weeks later the media was removed and the cell colonies were fixed with methanol for 10 minutes, stained with 1% crystal violet for 10 minutes, washed with water and air dried. Cell colonies were visually counted when there were greater then 50 cells present per colony. Plating efficiency was defined as the average number of colonies formed divided by 500. The surviving fraction was defined as the plating efficiency of a candidate compound divided by the plating efficiency of DMSO multiplied by 100. For candidate compound titrations, the IC50 value was determined by fitting the equation y=Ae^Bx to the data points and extrapolating the concentration where surviving fraction equaled 50. […]

Series [1] is described as follows: Storage stability of Form 2. The note with it: 40° C./75% RH for up to six months and 25° C./60% RH for up to 12 months; multiple batches. Type of series: physicochemical.
The nature of a further series: physchem. It is filed as physicochemical. As to the method: Form 1 and Form 2 have different equilibrium solubilities: Form 2=0.61 mg/mL and Form 1=0.51 mg/mL.
The nature of series [2]: Interconversion experiments (thermodynamic stability of polymorphs). Type of series: physicochemical. As to the method:
Form 1 is orthorhombic and contains four molecules of (−)-trans-3-(5,6-dihydro-4H-pyrrolo[3,2,1-ij]quinolin-1-yl)-4-(1H-indol-3-yl)pyrrolidine-2,5-dione per cell. Form 1 has a melting point of ˜218° C. recorded in DSC (See, FIG. 16).
The two polymorphs can be interconverted when proper conditions are used to control the crystallization process. Form 2 can be obtained by dissolving Form 1 in methanol, seeding with Form 2 and evaporating the mixture to dryness by rotary evaporation. The successful conversion was determined to be Form 2 by IR analysis and corroborated by XRPD analysis.

Series [3] has as its target Recombinant Protein Kinase C. Nature of the series: Protein Kinase C kinase assay (Histone H1, 32P-ATP, autoradiography). It is filed as biochemical. Set-up: dose or concentration left out as unconfirmed. To be noted: for 15 minutes at room temperature. As to the method: Recombinant Protein Kinase C (Calbiochem) (100 ng) was incubated with (±)-cis-3-(5,6-dihydro-4H-pyrrolo[3,2,1-ij]quinolin-1-yl)-4-(1H-indol-3-yl)pyrrolidine-2,5-dione or (±)-trans-3-(5,6-dihydro-4H-pyrrolo[3,2,1-ij]quinolin-1-yl)-4-(1H-indol-3-yl)pyrrolidine-2,5-dione at […] for 15 minutes at room temperature. Subsequently, a radioactive labeling mix in kinase buffer (20 mM Tris-HCl pH 7.5, 10 mM MgCl2) containing 20 μM ATP, 0.2 μCi/μl γ^32P-ATP, 0.2 μg/μl Histone H1 (Upstate Biotechnology/Millipore, Bedford, Mass.) was added to each sample. The kinase reaction was carried out for 5 minutes at room temperature. Reaction products were analyzed by 12% SDS-PAGE and autoradiography.

Series [4] deals with MDA-MB-231 cells or MIA PaCa-2 (PACA-2) cells. Nature of the series: Cell survival in six-well plates, Wright-Giemsa stain. It is filed as cell-based. To be noted: Homo sapiens; 0.1-2 μM, 10-15 days; MDA-MB-231 or Paca-2 cells, cell line of the IC50 not stated. As to the method:
Exponentially growing MDA-MB-231 cells or MIA PaCa-2 (also known as PACA-2) cells were seeded at 1,000 cells per well in six-well plates and allowed to attach for 24 hours. MDA-MB-231 and MIA PaCa-2 cells were cultured in DMEM supplemented with 10% (v/v) fetal bovine serum (FBS) and 5 ml Penicillin/Streptomycin at 37° C. in 5% CO2. MDA-MB-231 and MIA PaCa-2 were established in estrogen receptor-negative human breast cancer and pancreatic carcinoma cell lines, respectively. (±)-cis-3-(5,6-dihydro-4H-pyrrolo[3,2,1-ij]quinolin-1-yl)-4-(1H-indol-3-yl)pyrrolidine-2,5-dione or (±)-trans-3-(5,6-dihydro-4H-pyrrolo[3,2,1-ij]quinolin-1-yl)-4-(1H-indol-3-yl)pyrrolidine-2,5-dione were each dissolved at a concentration of 10 mM in DMSO, and separately added to cells at a concentration of 0.1, 0.25, 0.5, 1 or 2 μM. Control plates received DMSO alone, at the same percentage of total culture volume as that administered in conjunction with the highest concentration of drug. Cell cultures were observed daily for 10-15 days, then fixed and stained with modified Wright-Giemsa stain (Sigma). Treatment with (±)-cis-3-(5,6-dihydro-4H-pyrrolo[3,2,1-ij]quinolin-1-yl)-4-(1H-indol-3-yl)pyrrolidine-2,5-dione or (±)-trans-3-(5,6-dihydro-4H-pyrrolo[3,2,1-ij]quinolin-1-yl)-4-(1H-indol-3-yl)pyrrolidine-2,5-dione results in cell death of MDA-MB-231 cells or Paca-2 cells. See, e.g., FIG. 2.

Sequence of c-Met (P08581 25-1390): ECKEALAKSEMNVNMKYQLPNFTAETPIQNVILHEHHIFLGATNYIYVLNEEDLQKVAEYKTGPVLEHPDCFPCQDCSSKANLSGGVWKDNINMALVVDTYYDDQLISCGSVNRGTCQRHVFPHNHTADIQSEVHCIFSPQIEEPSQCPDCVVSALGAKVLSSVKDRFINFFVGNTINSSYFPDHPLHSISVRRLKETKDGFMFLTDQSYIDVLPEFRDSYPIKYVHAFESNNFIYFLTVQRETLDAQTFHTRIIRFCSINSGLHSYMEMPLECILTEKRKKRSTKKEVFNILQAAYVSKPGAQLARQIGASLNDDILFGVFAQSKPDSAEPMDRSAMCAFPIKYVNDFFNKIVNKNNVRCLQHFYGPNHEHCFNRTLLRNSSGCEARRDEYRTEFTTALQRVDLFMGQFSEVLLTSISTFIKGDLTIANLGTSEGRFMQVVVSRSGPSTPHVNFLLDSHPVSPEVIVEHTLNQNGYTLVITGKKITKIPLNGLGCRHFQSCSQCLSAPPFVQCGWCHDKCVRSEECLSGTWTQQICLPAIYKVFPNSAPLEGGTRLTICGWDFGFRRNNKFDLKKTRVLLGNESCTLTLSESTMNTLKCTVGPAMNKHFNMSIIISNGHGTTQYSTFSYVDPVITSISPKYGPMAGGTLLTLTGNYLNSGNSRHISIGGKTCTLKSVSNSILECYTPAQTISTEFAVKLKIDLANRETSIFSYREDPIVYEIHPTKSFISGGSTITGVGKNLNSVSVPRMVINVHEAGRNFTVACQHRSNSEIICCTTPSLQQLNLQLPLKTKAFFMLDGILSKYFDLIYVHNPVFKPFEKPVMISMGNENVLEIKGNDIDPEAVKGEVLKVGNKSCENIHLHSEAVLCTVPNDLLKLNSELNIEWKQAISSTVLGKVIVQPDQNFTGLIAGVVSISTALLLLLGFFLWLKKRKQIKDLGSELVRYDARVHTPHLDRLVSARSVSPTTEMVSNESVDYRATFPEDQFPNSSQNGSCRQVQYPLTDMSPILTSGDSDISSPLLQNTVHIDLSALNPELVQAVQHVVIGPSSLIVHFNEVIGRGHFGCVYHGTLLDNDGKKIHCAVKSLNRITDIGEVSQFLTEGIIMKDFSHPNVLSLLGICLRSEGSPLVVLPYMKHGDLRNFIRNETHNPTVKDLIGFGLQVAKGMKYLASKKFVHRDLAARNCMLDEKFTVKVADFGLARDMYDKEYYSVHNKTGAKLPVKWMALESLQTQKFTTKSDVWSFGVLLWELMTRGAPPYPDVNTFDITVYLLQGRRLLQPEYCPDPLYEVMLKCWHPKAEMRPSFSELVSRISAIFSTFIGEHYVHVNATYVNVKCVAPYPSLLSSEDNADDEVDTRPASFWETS

`O=C1NC(=O)[C@@H](c2cn3c4c(cccc24)CCC3)[C@@H]1c1c[nH]c2ccccc12` [(+)-trans-3-(5,6-dihydro-4H-pyrrolo[3,2,1-ij]quinolin-1-yl)-4-(1H-indol-3-yl)pyrrolidine-2,5-dione]: at c-Met, the “inhibitory effect on c-Met phosphorylation” value is on record as “only a minimum inhibitory effect”. Also, the IC50 (commonly the concentration at which inhibition is half-maximal) with MDA-MB-231 cells was determined as 4.1 µM.

`O=C1NC(=O)[C@@H](c2cn3c4c(cccc24)CCC3)[C@@H]1c1c[nH]c2ccccc12` [Form 2, (−)-trans-3-(5,6-dihydro-4H-pyrrolo[3,2,1-ij]quinolin-1-yl)-4-(1H-indol-3-yl)pyrrolidine-2,5-dione]: the “change in crystalline form or purity upon storage” value in series [1] was “No discernable change in crystalline form or purity”. The solubility (thermodynamic) – broadly, solubility found after equilibrating the solid with the medium – in “physchem” (thermodynamic from solid, equilibrium solubilities) is 610 µg/mL (≈ 1650 µM).

On to `O=C1NC(=O)[C@@H](c2cn3c4c(cccc24)CCC3)[C@@H]1c1c[nH]c2ccccc12` [Form 1, (−)-trans-3-(5,6-dihydro-4H-pyrrolo[3,2,1-ij]quinolin-1-yl)-4-(1H-indol-3-yl)pyrrolidine-2,5-dione], for which the equilibrium solubilities in the series “physchem” was determined as 0.51 mg/mL. In series [2], the thermodynamic stability entry is on record as “more thermodynamically stable than Form 2”.

As for `O=C1NC(=O)[C@@H](c2cn3c4c(cccc24)CCC3)[C@@H]1c1c[nH]c2ccccc12` (racemic) [(±)-trans-3-(5,6-dihydro-4H-pyrrolo[3,2,1-ij]quinolin-1-yl)-4-(1H-indol-3-yl)pyrrolidine-2,5-dione], the “kinase activity in comparison to treatment with carrier alone” value in series [3] is “did not reduce kinase activity”. The molecule also yielded an IC50 in series [4] of 0.5 µM.

Turning to `O=C1NC(=O)[C@@H](c2cn3c4c(cccc24)CCC3)[C@H]1c1c[nH]c2ccccc12` (racemic) [(±)-cis-3-(5,6-dihydro-4H-pyrrolo[3,2,1-ij]quinolin-1-yl)-4-(1H-indol-3-yl)pyrrolidine-2,5-dione], in series [3], the “kinase activity in comparison to treatment with carrier alone” value is on record as “did not reduce kinase activity”. The molecule further gave an IC50 in series [4] of 0.5 µM.
